Calls of active or inactive are those of the source.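 The calls were made as follows: active = maximal inhibition of the USP30 enzyme reaching 30% or more across the dose series; inactive = the rest.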
Biological target: Ubiquitin carboxyl-terminal hydrolase 30 (Homo sapiens) (UniProt Q70CQ3)
Assay: inhibitors of ubiquitin-specific protease 30 deubiquitylating enzyme, concentration dependence, in vitro biochemical, validation of primary hits (AID 1645865)
Details: purified USP30, Ub-rhodamine cleavage, fluorescence, 2 h

Sequence of Ubiquitin carboxyl-terminal hydrolase 30 (Homo sapiens) (Q70CQ3 whole entry, looked up): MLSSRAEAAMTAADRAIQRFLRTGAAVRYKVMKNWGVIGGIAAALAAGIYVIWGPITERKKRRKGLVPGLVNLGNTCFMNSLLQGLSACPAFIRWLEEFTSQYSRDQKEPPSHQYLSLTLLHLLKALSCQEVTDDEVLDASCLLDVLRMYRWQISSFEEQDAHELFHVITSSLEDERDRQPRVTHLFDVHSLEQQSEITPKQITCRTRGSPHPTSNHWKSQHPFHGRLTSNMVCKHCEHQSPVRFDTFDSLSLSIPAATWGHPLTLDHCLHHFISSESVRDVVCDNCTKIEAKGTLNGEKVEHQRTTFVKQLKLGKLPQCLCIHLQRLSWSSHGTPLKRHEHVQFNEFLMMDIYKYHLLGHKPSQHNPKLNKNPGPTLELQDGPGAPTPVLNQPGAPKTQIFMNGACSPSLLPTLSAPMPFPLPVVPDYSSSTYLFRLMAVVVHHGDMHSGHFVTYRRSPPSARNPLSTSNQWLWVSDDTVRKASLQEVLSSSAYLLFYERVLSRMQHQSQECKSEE

SMILES | IC50
O=C1Oc2nc3ccccc3cc2CN1Cc1ccco1 | 17.2 µM
Cc1nn(-c2ccc(F)cc2)cc1-c1noc(C(=O)NCc2ccccn2)n1 | 27.7 µM
Cc1ccc(NC(=O)Cn2c(Nc3cccc(C)c3)nc(C)cc2=O)cc1 | 26.6 µM
COc1cc(OC)c(NC(=O)Cn2c(=O)n(Cc3ccccc3Cl)c(=O)c3cc(OC)c(OC)cc32)cc1Cl | 2.28 µM
O=S(c1ccc2ccccc2c1)c1cnns1 (centres undefined) | > 50 µM (inactive)
COc1cccc(NC(=O)Nc2ccc(NC(C)=O)cc2)c1 | 17.9 µM
COCCNC(=O)c1cc(-c2cn(-c3ccccn3)c(C)n2)n2ccccc12 | > 50 µM (inactive)
CN1C(=O)c2cc(NC(=O)c3ccccc3Cl)ccc2Oc2ccccc21 | > 50 µM (inactive)
COc1ccc(CCN2COc3c(cc(Cl)c4cccnc34)C2)cc1OC | 13.6 µM
Cc1cc(N2CCC(NC(=O)NCc3ccc(F)cc3)C2=O)ccc1F (centres undefined) | 7.68 µM
O=C(COc1nc2ccccc2nc1N1CCOCC1)NC(c1ccccc1)c1ccccc1 | > 50 µM (inactive)
Cc1cccc(NC(=O)Cn2cnc(-c3noc(-c4ccccc4)n3)c2)c1C | 1.24 µM
O=C(Nc1cccc(F)c1)c1ncoc1-c1ccco1 | > 50 µM (inactive)
Cc1cccc(NC(=O)Cn2c(N3CCOCC3)nc3cc(C)n(C)c3c2=O)c1 | 20.9 µM
O=C(COC(=O)C1CCCN1C(=O)C12CC3CC(CC(C3)C1)C2)c1ccc(Cl)cc1 (centres undefined) | 6.49 µM
Cc1nn(-c2ccccc2)c2c1N=C1C(Cl)=CC(Cl)=CN1C21C(=O)Nc2ccccc21 (centres undefined) | > 50 µM (inactive)
CCOc1ccc(-n2c(C)cc(/C=C(\C#N)c3nc4ccccc4[nH]3)c2C)cc1 | > 50 µM (inactive)
O=C1CC(O)C(C2=CC(=O)c3c(O)cccc3C2=O)O1 (centres undefined) | 4.46 µM
COc1cccc(NC(=O)c2ccc(F)cc2Cl)c1 | > 50 µM (inactive)

SMILES | IC50
Cc1cccc(NC(=O)Nc2nnc(CC(=O)NCc3ccccc3)s2)c1 | 6.01 µM
Cc1cc(C)cc(NC(=O)CSc2ccc(-c3ccncc3)nn2)c1 | 34.6 µM
O=C(Nc1nnc2n1CCCS2)c1cc2ccccc2o1 | > 50 µM (inactive)
Cc1nnc(NCc2cccnc2)c2c1nnn2Cc1ccccc1Cl | 28.3 µM
CCOc1ccc(-c2nc(C#N)c(N3CCN(C(=O)c4ccccc4C)CC3)o2)cc1 | 2.62 µM
O=C(Cc1ccccc1F)N1CCC2(CC1)CC1(CO2)Nc2ccccc2-n2cccc21 (centres undefined) | > 50 µM (inactive)
O=c1c2ccccc2c(-c2nc(-c3ccncc3)no2)cn1-c1ccccc1 | 2.54 µM
CCn1c(SCC(=O)c2c(N)n(CC(C)C)c(=O)n(C)c2=O)nnc1-c1ccccc1 | 9.77 µM
O=C(Nc1ccccc1-c1nc2ccccc2[nH]1)c1sc2ccccc2c1Cl | 1.76 µM
COc1ccc(-c2nonc2NC(=O)C(c2ccccc2)c2ccccc2)cc1OC | > 50 µM (inactive)
COc1cccc(CNC(=O)C2=Cc3cccc(OC)c3OC2)c1 | > 50 µM (inactive)
O=C(Nc1ccc(Cl)cc1F)c1cc(-c2ccccn2)n[nH]1 | 0.445 µM
Cc1c(C)n(-c2ccccc2)c2ncn(CC(=O)N(C)Cc3ccccc3)c(=O)c12 | > 50 µM (inactive)
CC(C)NS(=O)(=O)c1ccc(CCC(=O)Nc2ccc3c(c2)OCCO3)cc1 | 37.8 µM
O=C(OCc1ccc(Br)cc1)c1ccc2ccccc2n1 | > 50 µM (inactive)
O=C(CCc1nnc2n(Cc3ccccc3Cl)c(=O)c3ccccc3n12)NCc1ccccn1 | 25.5 µM
COc1cc2c(cc1OC)-c1cc(Nc3ccc(Br)cc3)nc(=O)n1CC2 | 0.939 µM
CCn1c(Cn2cccn2)nc2cc(NC(=O)c3ccc(F)cc3)ccc21 | > 50 µM (inactive)

The remaining lines, values ahead:

IC50 | SMILES
28.6 µM | O=C(Nc1ccccc1)c1nc(-c2cn(Cc3ccc(F)cc3)nn2)no1
> 50 µM (inactive) | O=C(NCc1ccncc1)C1CCN(c2cncnc2N2CCCCC2)CC1
> 50 µM (inactive) | Cn1nccc1C(=O)N1CCCCC1c1ncc(Cc2ccc(Cl)cc2)o1 (centres undefined)
> 50 µM (inactive) | COC(=O)CC1CC23OC2(C(=O)c2c(O)cccc2C3=O)C(C)O1 (centres undefined)
16.5 µM | COc1ccccc1NC(=O)c1cc(-c2ccccn2)nc2ccccc12
> 50 µM (inactive) | Cc1ccc2c(c1C)NC(=O)[C@]21[C@@H]2C(=O)N(c3cccc(Cl)c3)C(=O)[C@@H]2[C@@H]2CCCN21
> 50 µM (inactive) | Cc1cccc(N2C(=O)/C(=C\c3ccc4c(c3)OCCO4)c3ccccc3C2=O)c1
> 50 µM (inactive) | CN1CC2CN(C(=O)c3ccc(F)cc3)CCN2Cc2ccccc21 (centres undefined)
1.95 µM | Cc1cccc(NC(=O)CSc2ccc(-n3cnc(-c4ccccc4)c3)nn2)c1
24.8 µM | COCCCNC(=O)c1ccc(Cn2c(=O)c3ccccc3n(CC(=O)NC3CCCCC3)c2=O)cc1
0.488 µM | Cc1c(-c2nsc(NC(=O)c3ccc(Cl)cc3)n2)nnn1-c1ccccc1F
> 50 µM (inactive) | O=c1cc(CNc2ccc(Br)cc2)nc2nc(-c3ccccc3)[nH]n12
23.2 µM | CCn1c(SCC(=O)N2c3ccccc3CC2C)nnc1-c1ccc2c(c1)OCCO2 (centres undefined)
> 50 µM (inactive) | CN(C)S(=O)(=O)c1ccc(N2CCCC2)c(C(=O)Nc2ccc(-c3cn4ccsc4n3)cc2)c1
> 50 µM (inactive) | c1coc(CNc2nc(Nc3cccc4ccccc34)nc3ccccc23)c1
3.88 µM | O=C(Nc1ccc(F)cc1)Nc1ccccc1OCc1cc(=O)n2ccccc2n1
> 50 µM (inactive) | Cc1c(C(=O)c2ccccc2)c2ccccn2c1CCc1ccccn1
> 50 µM (inactive) | COCCNC(=O)c1ccnn1-c1ccc2ccc(-c3cccnc3)cn12
41.6 µM | Cc1ccc(C(=O)NCCc2nc(-c3ccc4c(c3)OCO4)n[nH]2)cc1F

IC50 | SMILES
> 50 µM (inactive) | CCOC(=O)c1cccc(NC(=O)Nc2cccn3nc(C)nc23)c1
> 50 µM (inactive) | Cn1cc(CCNC(=O)c2cc3ccccc3[nH]2)c2cccnc21
> 50 µM (inactive) | Cc1ccc(-c2ccc(N3CCOCC3)nn2)cc1S(=O)(=O)N1CCOCC1
> 50 µM (inactive) | COc1ccccc1-c1ccc(CN2[C@@H](c3ccccc3)C[C@@H]3NC(=O)CCC[C@H]32)cc1
43.1 µM | O=C(OC1CSc2nc3ccccc3n2C1)c1ccc([N+](=O)[O-])o1 (centres undefined)
> 50 µM (inactive) | COCCNC(=O)c1ccn(-c2ccc3ccc(-c4cnn(C)c4)cn23)n1
35.9 µM | CN(c1ccccc1)c1nc(=O)n(CC(=O)Nc2ccc3c(c2)OCCO3)c2ccccc12
45.2 µM | COc1ccc(C(=O)NCc2csc3ccccc23)cc1
> 50 µM (inactive) | CC1(C(=O)NC2CCCC2)Cn2c(cc3ccccc32)C(=O)N1c1ccc(F)cc1 (centres undefined)
4.08 µM | CCOc1ccc(NC(=O)Cn2c(=O)n(CCC(=O)NCc3ccco3)c(=O)c3ccccc32)cc1
> 50 µM (inactive) | Cc1cnc2nc3c(cc2c1)CN(CCc1ccc(Cl)cc1)CC3
> 50 µM (inactive) | O=C(c1ccc(COc2cccc3ccccc23)o1)N1CCC(Cc2ccccc2)CC1
2.37 µM | CCc1ccc(NC(=O)Cc2nnc3cc(-c4nc(C)no4)ccn23)cc1
14 µM | Cn1c(-c2nnc(SCC(=O)Nc3ccccc3F)o2)cc2ccccc21
> 50 µM (inactive) | COc1cccc(N2CCN(C(=O)c3cc(NC(C)=O)cc4nc(C)ccc34)CC2)c1
> 50 µM (inactive) | COc1ccc(S(=O)(=O)N(C)Cc2cccs2)cc1OC
16.4 µM | O=C(NCCc1ccccn1)c1cc(-c2ccc(Br)cc2)n[nH]1
33.1 µM | COc1ccc(CN2CCCC23CCCN(C(=O)CCc2cccnc2)C3)cc1F (centres undefined)

Reference: PubChem BioAssay AID1645865 (Buhrlage Lab, Dana-Farber Cancer Institute and Novartis …, 2021)
